Data published in patent US12649722B2, “Herbicidal cinnoline derivatives” (SYNGENTA CROP PROTECTION AG, priority 2020, dated 2026).

What was measured:
Format in all cases: in vivo
[1] = test system: Amaranthus retoflexus (AMARE); experiment: Pre-emergence Test, AMARE; settings: 1000 g/ha, evaluated after 13 days
[2] = test system: Ipornoea hederacea (IPOHE); experiment: Pre-emergence Test, IPOHE; settings: 1000 g/ha, evaluated after 13 days
[3] = test system: Echinochloa crus-galli (ECHCG); experiment: Pre-emergence Test, ECHCG; settings: 1000 g/ha, evaluated after 13 days
Setaria faberi (SETFA) [4] = experiment: Pre-emergence Test, SETFA; settings: 1000 g/ha, evaluated after 13 days
ZEAMX [5] = experiment: Pre-emergence Test, ZEAMX; settings: 1000 g/ha, evaluated after 13 days
ABUTH [6] = experiment: Pre-emergence Test, ABUTH; settings: 1000 g/ha, evaluated after 13 days
[7] = test system: Amaranthus retoflexus (AMARE); experiment: Post-emergence Test, AMARE; settings: sprayed after 8 days cultivation, 1000 g/ha, evaluated after 13 days
Experimental: (§1) Seeds of a variety of test species are sown in standard soil in pots (Amaranthus retoflexus (AMARE), Solarium nigrum (SOLNI), Setaria faberi (SETFA), Lolium perenne (LOLPE), Echinochloa crus-galli (ECHCG), Ipornoea hederacea (IPOHE)). After 8 days cultivation under controlled conditions in a glasshouse (at 24° C./16° C., day/night; 14 hours light; 65% humidity), the plants are sprayed with an aqueous spray solution derived from the formulation of the technical active ingredient in acetone/water (50:50) solution containing 0.5% Tween 20 (polyoxyethylene sorbitan monolaurate, CAS RN 9005-64-5). Compounds are applied at 1000 g/ha unless otherwise stated. The test plants are then grown in a glasshouse under controlled conditions in a glasshouse (at 24° C./16° C., day/night; 14 hours light; 65% humidity) and watered twice daily. After 13 days the test is evaluated for the percentage damage caused to the plant. The biological activities are shown in the following table on a five-point scale (5=81-100%; 4=61-80%; 3=41-60%; 2=21-40%; 1=10-20%; 0=0%; −=not tested).

[8] = test system: Ipornoea hederacea (IPOHE); experiment: Post-emergence Test, IPOHE; settings: sprayed after 8 days cultivation, 1000 g/ha, evaluated after 13 days
Experimental: as §1

[9] = test system: Echinochloa crus-galli (ECHCG); experiment: Post-emergence Test, ECHCG; settings: sprayed after 8 days cultivation, 1000 g/ha, evaluated after 13 days
Experimental: as §1

Setaria faberi (SETFA) [10] = experiment: Post-emergence Test, SETFA; settings: sprayed after 8 days cultivation, 1000 g/ha, evaluated after 13 days
Experimental: as §1

ZEAMX [11] = experiment: Post-emergence Test, ZEAMX; settings: sprayed after 8 days cultivation, 1000 g/ha, evaluated after 13 days
Experimental: [The procedure below names another target; the source lists this target under the same test.] as §1

ABUTH [12] = experiment: Post-emergence Test, ABUTH; settings: sprayed after 8 days cultivation, 1000 g/ha, evaluated after 13 days
Experimental: [The procedure below names another target; the source lists this target under the same test.] as §1

O=C(O)c1nn(-c2ccc(OC(F)(F)F)cc2)c2cccc(-c3cc(C(F)F)on3)c2c1=O [Compound P13, 5-[5-(difluoromethyl)isoxazol-3-yl]-4-oxo-1-[4-(trifluoromethoxy)phenyl] cinnoline-3-carboxylic acid]
percentage damage caused to the plant, AMARE [1]: 0 (0=0%) | percentage damage caused to the plant, IPOHE [2]: 0 (0=0%) | percentage damage caused to the plant, ECHCG [3]: 0 (0=0%) | percentage damage caused to the plant, SETFA (Setaria faberi (SETFA) [4]): 0 (0=0%) | percentage damage caused to the plant, ZEAMX (ZEAMX [5]): 0 (0=0%) | percentage damage caused to the plant, ABUTH (ABUTH [6]): 0 (0=0%) | percentage damage caused to the plant, AMARE [7]: 1 (1=10-20%) | percentage damage caused to the plant, IPOHE [8]: 2 (2=21-40%) | percentage damage caused to the plant, ECHCG [9]: 3 (3=41-60%) | percentage damage caused to the plant, SETFA (Setaria faberi (SETFA) [10]): 4 (4=61-80%) | percentage damage caused to the plant, ZEAMX (ZEAMX [11]): 3 (3=41-60%) | percentage damage caused to the plant, ABUTH (ABUTH [12]): 0 (0=0%)

O=C(O)c1nn(-c2ccc(OC(F)(F)F)cc2)c2cccc(N3CCCCC3)c2c1=O [Compound P24, 4-oxo-5-(1-piperidyl)-1-[4-(trifluoromethoxy)phenyl] cinnoline-3-carboxylic acid]
percentage damage caused to the plant, AMARE [1]: 0 (0=0%) | percentage damage caused to the plant, IPOHE [2]: 0 (0=0%) | percentage damage caused to the plant, ECHCG [3]: 1 (1=10-20%) | percentage damage caused to the plant, SETFA (Setaria faberi (SETFA) [4]): 0 (0=0%) | percentage damage caused to the plant, ZEAMX (ZEAMX [5]): 0 (0=0%) | percentage damage caused to the plant, ABUTH (ABUTH [6]): 1 (1=10-20%) | percentage damage caused to the plant, AMARE [7]: 0 (0=0%) | percentage damage caused to the plant, IPOHE [8]: 0 (0=0%) | percentage damage caused to the plant, ECHCG [9]: 0 (0=0%) | percentage damage caused to the plant, SETFA (Setaria faberi (SETFA) [10]): 0 (0=0%) | percentage damage caused to the plant, ZEAMX (ZEAMX [11]): 0 (0=0%) | percentage damage caused to the plant, ABUTH (ABUTH [12]): 1 (1=10-20%)

CCOC(=O)c1nn(-c2ccc(OC(F)(F)F)cc2)c2cccc(CC#N)c2c1=O [Compound P35, ethyl 5-(cyanomethyl)-4-oxo-1-[4-(trifluoromethoxy)phenyl] cinnoline-3-carboxylate]
percentage damage caused to the plant, AMARE [1]: 1 (1=10-20%) | percentage damage caused to the plant, IPOHE [2]: 0 (0=0%) | percentage damage caused to the plant, ECHCG [3]: 5 (5=81-100%) | percentage damage caused to the plant, SETFA (Setaria faberi (SETFA) [4]): 5 (5=81-100%) | percentage damage caused to the plant, ZEAMX (ZEAMX [5]): 2 (2=21-40%) | percentage damage caused to the plant, ABUTH (ABUTH [6]): 0 (0=0%) | percentage damage caused to the plant, AMARE [7]: 0 (0=0%) | percentage damage caused to the plant, IPOHE [8]: 0 (0=0%) | percentage damage caused to the plant, ECHCG [9]: 4 (4=61-80%) | percentage damage caused to the plant, SETFA (Setaria faberi (SETFA) [10]): 4 (4=61-80%) | percentage damage caused to the plant, ZEAMX (ZEAMX [11]): 3 (3=41-60%) | percentage damage caused to the plant, ABUTH (ABUTH [12]): 0 (0=0%)

C=Cc1cccc2c1c(=O)c(C(=O)O)nn2-c1ccc(OC(F)(F)F)cc1 [Compound P17, 4-oxo-1-[4-(trifluoromethoxy)phenyl]-5-vinyl-cinnoline-3-carboxylic acid]
percentage damage caused to the plant, AMARE [1]: 2 (2=21-40%) | percentage damage caused to the plant, IPOHE [2]: 0 (0=0%) | percentage damage caused to the plant, ECHCG [3]: 2 (2=21-40%) | percentage damage caused to the plant, SETFA (Setaria faberi (SETFA) [4]): 3 (3=41-60%) | percentage damage caused to the plant, ZEAMX (ZEAMX [5]): 1 (1=10-20%) | percentage damage caused to the plant, ABUTH (ABUTH [6]): 1 (1=10-20%) | percentage damage caused to the plant, AMARE [7]: 2 (2=21-40%) | percentage damage caused to the plant, IPOHE [8]: 0 (0=0%) | percentage damage caused to the plant, ECHCG [9]: 3 (3=41-60%) | percentage damage caused to the plant, SETFA (Setaria faberi (SETFA) [10]): 3 (3=41-60%) | percentage damage caused to the plant, ZEAMX (ZEAMX [11]): 1 (1=10-20%) | percentage damage caused to the plant, ABUTH (ABUTH [12]): 1 (1=10-20%)

C=Cc1cccc2c1c(=O)c(C(=O)OCC)nn2-c1ccc(OC(F)(F)F)cc1 [Compound P16, ethyl 4-oxo-1-[4-(trifluoromethoxy)phenyl]-5-vinyl-cinnoline-3-carboxylate]
percentage damage caused to the plant, AMARE [1]: 2 (2=21-40%) | percentage damage caused to the plant, IPOHE [2]: 1 (1=10-20%) | percentage damage caused to the plant, ECHCG [3]: 2 (2=21-40%) | percentage damage caused to the plant, SETFA (Setaria faberi (SETFA) [4]): 3 (3=41-60%) | percentage damage caused to the plant, ZEAMX (ZEAMX [5]): 1 (1=10-20%) | percentage damage caused to the plant, ABUTH (ABUTH [6]): 2 (2=21-40%) | percentage damage caused to the plant, AMARE [7]: 2 (2=21-40%) | percentage damage caused to the plant, IPOHE [8]: 1 (1=10-20%) | percentage damage caused to the plant, ECHCG [9]: 3 (3=41-60%) | percentage damage caused to the plant, SETFA (Setaria faberi (SETFA) [10]): 4 (4=61-80%) | percentage damage caused to the plant, ZEAMX (ZEAMX [11]): 2 (2=21-40%) | percentage damage caused to the plant, ABUTH (ABUTH [12]): 1 (1=10-20%)

CCOC(=O)c1nn(-c2ccc(OC(F)(F)F)cc2)c2cccc(/C(C)=N/O)c2c1=O [Compound P14, ethyl 5-[(E)-N-hydroxy-C-methyl-carbonimidoyl]-4-oxo-1-[4-(trifluoromethoxy)phenyl] cinnoline-3-carboxylate]
percentage damage caused to the plant, AMARE [1]: 1 (1=10-20%) | percentage damage caused to the plant, IPOHE [2]: 0 (0=0%) | percentage damage caused to the plant, ECHCG [3]: 4 (4=61-80%) | percentage damage caused to the plant, SETFA (Setaria faberi (SETFA) [4]): 4 (4=61-80%) | percentage damage caused to the plant, ZEAMX (ZEAMX [5]): 2 (2=21-40%) | percentage damage caused to the plant, ABUTH (ABUTH [6]): 1 (1=10-20%) | percentage damage caused to the plant, AMARE [7]: 2 (2=21-40%) | percentage damage caused to the plant, IPOHE [8]: 1 (1=10-20%) | percentage damage caused to the plant, ECHCG [9]: 4 (4=61-80%) | percentage damage caused to the plant, SETFA (Setaria faberi (SETFA) [10]): 3 (3=41-60%) | percentage damage caused to the plant, ZEAMX (ZEAMX [11]): 4 (4=61-80%) | percentage damage caused to the plant, ABUTH (ABUTH [12]): 3 (3=41-60%)

C=C(OCC)c1cccc2c1c(=O)c(C(=O)OCC)nn2-c1ccc(OC(F)(F)F)cc1 [Compound P29, ethyl 5-(1-ethoxyvinyl)-4-oxo-1-[4-(trifluoromethoxy)phenyl] cinnoline-3-carboxylate]
percentage damage caused to the plant, AMARE [1]: 1 (1=10-20%) | percentage damage caused to the plant, IPOHE [2]: 1 (1=10-20%) | percentage damage caused to the plant, ECHCG [3]: 4 (4=61-80%) | percentage damage caused to the plant, SETFA (Setaria faberi (SETFA) [4]): 5 (5=81-100%) | percentage damage caused to the plant, ZEAMX (ZEAMX [5]): 1 (1=10-20%) | percentage damage caused to the plant, ABUTH (ABUTH [6]): 1 (1=10-20%) | percentage damage caused to the plant, AMARE [7]: 0 (0=0%) | percentage damage caused to the plant, IPOHE [8]: 0 (0=0%) | percentage damage caused to the plant, ECHCG [9]: 4 (4=61-80%) | percentage damage caused to the plant, SETFA (Setaria faberi (SETFA) [10]): 3 (3=41-60%) | percentage damage caused to the plant, ZEAMX (ZEAMX [11]): 2 (2=21-40%) | percentage damage caused to the plant, ABUTH (ABUTH [12]): 1 (1=10-20%)

O=C(O)c1nn(-c2ccc(OC(F)(F)F)cc2)c2cccc(-n3cc(C(F)(F)F)nn3)c2c1=O [Compound P21, 4-oxo-1-[4-(trifluoromethoxy)phenyl]-5-[4-(trifluoromethyl)triazol-1-yl]cinnoline-3-carboxylic acid]
percentage damage caused to the plant, AMARE [1]: 1 (1=10-20%) | percentage damage caused to the plant, IPOHE [2]: 1 (1=10-20%) | percentage damage caused to the plant, ECHCG [3]: 1 (1=10-20%) | percentage damage caused to the plant, SETFA (Setaria faberi (SETFA) [4]): 2 (2=21-40%) | percentage damage caused to the plant, ZEAMX (ZEAMX [5]): 0 (0=0%) | percentage damage caused to the plant, ABUTH (ABUTH [6]): 0 (0=0%) | percentage damage caused to the plant, AMARE [7]: 1 (1=10-20%) | percentage damage caused to the plant, IPOHE [8]: 0 (0=0%) | percentage damage caused to the plant, ECHCG [9]: 0 (0=0%) | percentage damage caused to the plant, SETFA (Setaria faberi (SETFA) [10]): 2 (2=21-40%) | percentage damage caused to the plant, ZEAMX (ZEAMX [11]): 1 (1=10-20%) | percentage damage caused to the plant, ABUTH (ABUTH [12]): 1 (1=10-20%)
